In ChEMBL document CHEMBL1132028, “Glycolipids from sponges. VII. Simplexides, novel immunosuppressive glycolipids from the Caribbean sponge Plakortis simplex” (1999) one finds Proliferation and Activity data, which are given here for 16 compounds.

Experiment [1] relates to T-cell. The experiment can be described thus: Inhibitory activity against murine immune-system T-cells stimulated with concanavalin-A at 100 ng/ml. Format: functional, Mus musculus.
The test system of experiment [2] is T-cell. Kind of experiment: Inhibitory activity against murine immune-system T-cells stimulated with concanavalin-A at 10 ng/ml. The experiment is classed as functional, Mus musculus.
In experiment [3] the test system is Plakortis simplex. Kind of experiment: In vitro immunosuppressors activity against P. simplex; Potent. The experiment is classed as functional, organism-based.

`CCC(C)CCCCCCCCCCCCCCC(CCCCCCCCCCCCCCC(C)CC)O[C@@H]1O[C@@H](CO)[C@H](OC2O[C@@H](CO)[C@@H](O)[C@H](O)[C@@H]2O)[C@H](O)[C@@H]1O` (stereo partly specified): the Proliferation worked out at 79% in experiment [1] and 43% in experiment [2].
Take `CC(C)CCCCCCCCCCCCCCC(CCCCCCCCCCCCCCC(C)C)O[C@@H]1O[C@@H](CO)[C@H](O[C@H]2O[C@@H](CO)[C@@H](O)[C@H](O)[C@@H]2O)[C@H](O)[C@@H]1O`: the figures for the Proliferation in experiment [1] and in experiment [2] were 79% and 43%, respectively.
On the same counts, the results for `CCCCCCCCCCCCCCCCC(CCCCCCCCCCCCCCC(C)CC)O[C@@H]1O[C@@H](CO)[C@H](O[C@H]2O[C@@H](CO)[C@@H](O)[C@H](O)[C@@H]2O)[C@H](O)[C@@H]1O` (stereo partly specified) are 79% and 43%.
As for `CCCCCCCCCCCCCCCCC(CCCCCCCCCCCCCCC(C)C)O[C@@H]1O[C@@H](CO)[C@H](O[C@H]2O[C@@H](CO)[C@@H](O)[C@H](O)[C@@H]2O)[C@H](O)[C@@H]1O` (stereo partly specified), the Proliferation in experiment [1] stood at 79%; in experiment [2], 43%.
The like results for `CCCCCCCCCCCCCCCCCC(CCCCCCCCCCCCCCCC)O[C@@H]1O[C@@H](CO)[C@H](O[C@H]2O[C@@H](CO)[C@@H](O)[C@H](O)[C@@H]2O)[C@H](O)[C@@H]1O` (stereo partly specified) were, in that order, 79% and 43%.
The like results for `CCCCCCCCCCCCCCCCCC(CCCCCCCCCCCCCCCCC)O[C@@H]1O[C@@H](CO)[C@H](O[C@H]2O[C@@H](CO)[C@@H](O)[C@H](O)[C@@H]2O)[C@H](O)[C@@H]1O` were, in that order, 79% and 43%.
On the same counts, the results for `CCCCCCCCCCCCCCCCCC(CCCCCCCCCCCCCCC(C)CC)O[C@@H]1O[C@@H](CO)[C@H](O[C@H]2O[C@@H](CO)[C@@H](O)[C@H](O)[C@@H]2O)[C@H](O)[C@@H]1O` (stereo partly specified) are 79% and 43%.
With `CCCCCCCCCCCCCCCCCC(CCCCCCCCCCCCCCC(C)C)O[C@@H]1O[C@@H](CO)[C@H](O[C@H]2O[C@@H](CO)[C@@H](O)[C@H](O)[C@@H]2O)[C@H](O)[C@@H]1O` (stereo partly specified), the Proliferation in experiment [1] was 79%; in experiment [2], 43%.
On to `CCCCCCCCCCCCCCCCC(CCCCCCCCCCCCCCCC)O[C@@H]1O[C@@H](CO)[C@H](O[C@H]2O[C@@H](CO)[C@@H](O)[C@H](O)[C@@H]2O)[C@H](O)[C@@H]1O`, for which the Proliferation in experiment [1] amounted to 79%; in experiment [2], 43%.
As for `CCCCCCCCCCCCCCCCCCC(CCCCCCCCCCCCCCCCC)O[C@@H]1O[C@@H](CO)[C@H](OC2O[C@@H](CO)[C@@H](O)[C@H](O)[C@@H]2O)[C@H](O)[C@@H]1O` (stereo partly specified), the Proliferation in experiment [1] was 79%; in experiment [2], 43%.
For `CCCCCCCCCCCCCCCCCCC(CCCCCCCCCCCCCCC(C)CC)O[C@@H]1O[C@@H](CO)[C@H](O[C@H]2O[C@@H](CO)[C@@H](O)[C@H](O)[C@@H]2O)[C@H](O)[C@@H]1O` (stereo partly specified), the Proliferation in experiment [1] amounted to 79%; in experiment [2], 43%.
The like results for `CCC(C)CCCCCCCCCCCCCCC(CCCCCCCCCCCCCCC(C)C)O[C@@H]1O[C@@H](CO)[C@H](O[C@H]2O[C@@H](CO)[C@@H](O)[C@H](O)[C@@H]2O)[C@H](O)[C@@H]1O` (stereo partly specified) were, in that order, 79% and 43%.
The like results for `CCCCCCCCCCCCCCCCCCC(CCCCCCCCCCCCCCC(C)C)O[C@@H]1O[C@@H](CO)[C@H](OC2O[C@@H](CO)[C@@H](O)[C@H](O)[C@@H]2O)[C@H](O)[C@@H]1O` (stereo partly specified) were, in that order, 79% and 43%.
Turning to `CCCCCCCCCCCC1CC1CCCCC/C=C/CC[C@@H](O)[C@H](CO[C@@H]1O[C@@H](CO)[C@H](O)[C@H](O)[C@@H]1OCC=C(C)C)NC(=O)[C@H](O)CC/C=C\CCCCC1CC1CCCCCCCCCC` (stereo partly specified), the Activity result in experiment [3] is “Potent”.
For `CCCCCCCCCCCCCCCCCCC(CCCCCCCCCCCCCCCCCC)O[C@@H]1O[C@@H](CO)[C@H](O[C@H]2O[C@@H](CO)[C@@H](O)[C@H](O)[C@@H]2O)[C@H](O)[C@@H]1O`, the Proliferation came out at 79% in experiment [1] and 43% in experiment [2].
The like results for `CCCCCCCCCCCCCCCCCCC(CCCCCCCCCCCCCCCC)O[C@@H]1O[C@@H](CO)[C@H](O[C@H]2O[C@@H](CO)[C@@H](O)[C@H](O)[C@@H]2O)[C@H](O)[C@@H]1O` (stereo partly specified) were, in that order, 79% and 43%.
